Measured values published in patent publication US20220024964A1, “Cyclic Di-Nucleotide Compounds as STING Agonists” (Merck Sharp & Dohme Corp., priority 2018, published 2022).

Legend:
THP1 cells = test: IFN-β secretion in THP1 cell culture (5 h); format: cell-based, human; details: 30 μM compound, 30 uM cGAMP = 100%
Procedure: The ability of compounds to stimulate the secretion of interferon-beta from THP1 cells was measured using a human IFN-β AlphaLISA kit (Perkin Elmer, Cat. No. AL265F). The basic protocol is as follows:
A Labcyte Echo 550 acoustic dispenser was used to transfer 120 nL of compound dissolved in DMSO into the wells of an empty, sterile 384-well microplate, (Corning, Cat. No. 3712). THP1 cells (American Type Culture Collection, Cat. No. TIB202) previously frozen in Recovery Medium (Life Technologies, Cat. No. 12648-010) were thawed and immediately diluted 10-fold into 37° C. assay medium (RPMI 1640+L-Glutamine & phenol red, Life Technologies, Cat. No. 11875-085; 0.5% heat inactivated fetal bovine serum, Sigma Aldrich, Cat. No. F4135; 1 mM Sodium Pyruvate, Life Technologies, Cat. No. 11360-070; lx non-essential amino acids; Life Technologies, Cat. No. 11140-050). The cell viability and count was ascertained using a Beckman Coulter V-Cell XR cell counter. The cell suspension was centrifuged at 200×g for 5 min at RT. […]
The assay was started by dispensing 40 μL of the previously prepared cell suspension into the wells of the plate containing compounds. […] The plate was then read on a Perkin Elmer Envision (λex=680 nm, λcm=570 nm). The percent effect of the AlphaLISA signal at each compound concentration was calculated based on 30 uM cGAMP positive controls and 0.3% DMSO negative controls. […]

full-length WT STING = biological target: T1, full-length WT STING (Homo sapiens, UniProt Q86WV6, H232R); test: 3H-cGAMP filtration binding assay (WT STING); details: competition with tritiated cGAMP ligand, WT STING membrane
T1 construct: Full-Length STING WT [STING(1-379)H232R-gg-AviTag-gs-; made in house; host or cells: Trichoplusia ni insect cells via baculovirus (virus made in Sf21); used as a membrane preparation
Procedure: (§1) The ability of compounds to bind STING is quantified by their ability to compete with tritiated cGAMP ligand for human STING receptor membrane using a radioactive filter-binding assay. The binding assay employs STING receptor obtained from Trichoplusia ni cell membranes (T. ni; Expression Systems, cat #94-002F, www.expressionsystems.com) overexpressing full-length WT STING and tritiated cGAMP ligand.
The basic WT STING filtration assay protocol is as follows: 16 nM of [^3H] c-GAMP ligand was prepared by diluting into assay buffer, and 50 uL of this working stock was manually added to each well of the assay plate. After ligand addition, 2 uL of either titrated test compound, DMSO control (Sigma #276855), or cold cGAMP control was added to the appropriate wells using a BIOMEK FX. The serially titrated compound was prepared on a Hamilton STARPlus CORE in a 96-well plate (Greiner, #651201) using a 1:3 ten-point dose response format. […] Tritium levels for each reaction well were then measured using a PerkinElmer TopCount plate reader.
(§2) After normalization to controls, the percent activity for each compound concentration was calculated by measuring the amount of remaining radioactivity. […]

full-length HAQ STING = biological target: T2, full-length HAQ STING (Homo sapiens, UniProt Q86WV6, G230A/H232R/R293Q/R71H); test: 3H-cGAMP filtration binding assay (HAQ STING); details: competition with tritiated cGAMP ligand, HAQ STING membrane
T2 construct: Full-Length HAQ STING [STING(1-379)R71H, G230A, H232R,; made in house; host or cells: Trichoplusia ni (Hi-Five) insect cells via baculovirus (virus made in Sf21); used as a membrane preparation
From the text: The ability of compounds to bind STING is quantified by the ability to compete with tritiated cGAMP ligand for human STING receptor membrane using a radioactive filter-binding assay. The binding assay employs STING receptor obtained from Hi-Five cell membranes overexpressing full-length HAQ STING prepared in-house and tritiated cGAMP ligand also purified in-house.
as §1, with “HAQ” for “WT”
The basic HAQ STING filtration assay protocol is as follows: The compounds were serially titrated by the Hamilton STARPlus CORE in a 96-well plate (Greiner, #651201) using a 1:3 ten-point dose response format. […] Tritium levels for each reaction well were then measured using a PerkinElmer TopCount plate reader.
as §2

T1 sequence (Q86WV6 with tags, fused parts or gaps H232R): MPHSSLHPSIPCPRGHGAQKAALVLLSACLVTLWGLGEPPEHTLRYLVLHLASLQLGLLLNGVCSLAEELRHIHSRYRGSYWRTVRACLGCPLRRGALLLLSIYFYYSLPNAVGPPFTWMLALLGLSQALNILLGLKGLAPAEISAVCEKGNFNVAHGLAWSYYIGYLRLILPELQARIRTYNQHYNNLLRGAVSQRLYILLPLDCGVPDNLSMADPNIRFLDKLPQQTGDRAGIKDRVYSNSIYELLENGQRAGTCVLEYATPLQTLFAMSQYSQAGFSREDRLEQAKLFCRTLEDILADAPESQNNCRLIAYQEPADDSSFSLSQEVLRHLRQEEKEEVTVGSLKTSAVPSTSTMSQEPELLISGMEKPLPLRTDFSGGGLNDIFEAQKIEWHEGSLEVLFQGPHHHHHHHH
T2 sequence (Q86WV6 with tags, fused parts or gaps R71H/G230A/H232R/R293Q): as the sequence (Q86WV6 with tags, fused parts or gaps H232R) above, with R71H, G230A, R293Q counted along it

EC50 (full-length WT STING): 118 nM
EC50 (full-length HAQ STING): 49.1 nM
SMILES: Nc1nc2c(ncn2[C@@H]2O[C@@H]3COP(=O)(S)O[C@@H]4C[C@H](n5cnc6c(N)ncnc65)O[C@@H]4COP(=O)(S)O[C@H]2C3)c(=O)[nH]1 (stereo partly drawn) [Example 1, 2-amino-9-[(5S,7R,8S,12aR,14R,15aR)-14-(6-amino-9H-purin-9-yl)-2,10-dioxido-2,10-disulfanyloctahydro-12H-5,8-methanofuro[3,2-1][1,3,6,9,11,2,10]pentaoxadiphosphacyclotetradecin-7-yl]-1,9-dihydro-6H-purin-6-one]
% Effect at 30 μM relative to 2′3′-cGAMP (THP1 cells): 107%
